Assay results published in publication PMC5988656, “Phase I studies of AZD1208, a proviral integration Moloney virus kinase inhibitor in solid and haematological cancers” (British Journal of Cancer, 2018).
Several values for one entry are separate records, joined by “and”; a condition that tells them apart may be missing. Identical values can stand only once.

Test: AML dose-escalation study: pharmacokinetics (plasma, urine)
Format: in vivo, human
Experimental: The schedules for collection of blood and urine samples for PK analyses in each cohort in both studies are described in Supplementary Table 1. When necessary for clinical response assessment in the AML study, a bone marrow sample for PK analysis was collected at Cycle 1, Day 28.
The concentration of AZD1208 in plasma and urine was determined by Covance, on behalf of Clinical Bioanalysis Alliance at AstraZeneca R&D, using a bioanalytical method. A volume of 0.05 ml of K2EDTA human plasma sample was extracted by liquid–liquid extraction using 0.7 ml of methyl tert-butyl ether. Approximately 100 µl of the supernatant was transferred, evaporated to dryness and reconstituted with 350 µl of 1:1 methanol:water, and a 5 µl injection was made to the high-performance liquid chromatography (HPLC) column. HPLC separations were performed on a Phenomenex LUNA C18 (50 × 2 mm, 5 µm) column using a mobile phase of 0.1% formic acid in water (A) and 0.1% formic acid in acetonitrile (B) at a flow rate of 0.6 ml/min and a column temperature of 40 °C. AZD1208-D5 was used as the internal standard. Detection was performed in a Sciex API4000 mass spectrometer, in a positive electrospray ionisation mode, using multiple reaction monitoring detection (AZD1208: 380.0–>248.1; AZD1208-D5: 385.0–>253.1).

N[C@@H]1CCCN(c2c(/C=C3\SC(=O)NC3=O)cccc2-c2ccccc2)C1 [AZD1208]
Gmean plasma concentration of AZD1208 (± SD) (Cycle 1, Day 1, 24 h post-dose, 120 mg, n=3): 199.0 (75.6, 524.0) ng ml | Gmean plasma concentration of AZD1208 (± SD) (Cycle 1, Day 1, 24 h post-dose, 240 mg, n=6): 844.5 (598.4, 1191.8) ng ml | Gmean plasma concentration of AZD1208 (± SD) (Cycle 1, Day 1, 24 h post-dose, 480 mg, n=6): 2169.6 (1161.6, 4052.3) ng ml | Gmean plasma concentration of AZD1208 (± SD) (Cycle 1, Day 1, 24 h post-dose, 900 mg, n=9): 3045.2 (1664.2, 5572.3) ng ml | Gmean plasma concentration of AZD1208 (± SD) (Cycle 1, Day 1, pre-dose, 240 mg, n=6): 76.9 (NC) ng ml | Gmean plasma concentration of AZD1208 (± SD) (Cycle 1, Day 14, 0.5 h post-dose, 120 mg, n=3): 1758.9 (970.3, 3188.5) ng ml | Gmean plasma concentration of AZD1208 (± SD) (Cycle 1, Day 14, 0.5 h post-dose, 240 mg, n=6): 2365.9 (976.3, 6694.0) ng ml | Gmean plasma concentration of AZD1208 (± SD) (Cycle 1, Day 14, 0.5 h post-dose, 480 mg, n=6): 2887.4 (322.6, 25 841.7) ng ml | Gmean plasma concentration of AZD1208 (± SD) (Cycle 1, Day 14, 0.5 h post-dose, 700 mg, n=7): 2029.2 (863.1, 4770.5) ng ml | Gmean plasma concentration of AZD1208 (± SD) (Cycle 1, Day 14, 1 h post-dose, 120 mg, n=3): 2050.2 (1514.6, 2775.2) ng ml | Gmean plasma concentration of AZD1208 (± SD) (Cycle 1, Day 14, 1 h post-dose, 480 mg, n=6): 4956.2 (1164.7, 21 090.8) ng ml | Gmean plasma concentration of AZD1208 (± SD) (Cycle 1, Day 14, 1 h post-dose, 700 mg, n=7): 2013.8 (1004.8, 4035.8) ng ml | Gmean plasma concentration of AZD1208 (± SD) (Cycle 1, Day 14, 1 h post-dose, 900 mg, n=9): 1952.5 (1166.1, 3269.1) ng ml | Gmean plasma concentration of AZD1208 (± SD) (Cycle 1, Day 14, 1.5 h post-dose, 120 mg, n=3): 2375.1 (1849.1, 3050.7) ng ml | Gmean plasma concentration of AZD1208 (± SD) (Cycle 1, Day 14, 1.5 h post-dose, 240 mg, n=6): 5142.8 (4058.6, 6516.6) ng ml | Gmean plasma concentration of AZD1208 (± SD) (Cycle 1, Day 14, 1.5 h post-dose, 480 mg, n=6): 5384.2 (2123.1, 13 654.8) ng ml | Gmean plasma concentration of AZD1208 (± SD) (Cycle 1, Day 14, 1.5 h post-dose, 700 mg, n=7): 3963.7 (2236.9, 7023.5) ng ml | Gmean plasma concentration of AZD1208 (± SD) (Cycle 1, Day 14, 1.5 h post-dose, 900 mg, n=9): 2747.1 (1719.7, 4388.3) ng ml | Gmean plasma concentration of AZD1208 (± SD) (Cycle 1, Day 14, 2 h post-dose, 120 mg, n=3): 2216.3 (1388.5, 3537.7) ng ml | Gmean plasma concentration of AZD1208 (± SD) (Cycle 1, Day 14, 2 h post-dose, 240 mg, n=6): 6153.8 (5277.1, 7175.8) ng ml | Gmean plasma concentration of AZD1208 (± SD) (Cycle 1, Day 14, 2 h post-dose, 480 mg, n=6): 5818.8 (2320.7, 14 589.5) ng ml | Gmean plasma concentration of AZD1208 (± SD) (Cycle 1, Day 14, 2 h post-dose, 700 mg, n=7): 4388.1 (2945.6, 6536.9) ng ml | Gmean plasma concentration of AZD1208 (± SD) (Cycle 1, Day 14, 2 h post-dose, 900 mg, n=9): 3107.5 (1803.0, 5356.1) ng ml | Gmean plasma concentration of AZD1208 (± SD) (Cycle 1, Day 14, 3 h post-dose, 120 mg, n=3): 2052.0 (1181.0, 3565.2) ng ml | Gmean plasma concentration of AZD1208 (± SD) (Cycle 1, Day 14, 3 h post-dose, 240 mg, n=6): 3687.8 (1657.8, 8203.5) ng ml | Gmean plasma concentration of AZD1208 (± SD) (Cycle 1, Day 14, 3 h post-dose, 480 mg, n=6): 5515.9 (1885.1, 16 139.7) ng ml | Gmean plasma concentration of AZD1208 (± SD) (Cycle 1, Day 14, 3 h post-dose, 700 mg, n=7): 5521.1 (2560.5, 11 905.2) ng ml | Gmean plasma concentration of AZD1208 (± SD) (Cycle 1, Day 14, 3 h post-dose, 900 mg, n=9): 3179.0 (1505.2, 6714.4) ng ml | Gmean plasma concentration of AZD1208 (± SD) (Cycle 1, Day 14, 6 h post-dose, 120 mg, n=3): 1761.5 (1019.2, 3044.5) ng ml | Gmean plasma concentration of AZD1208 (± SD) (Cycle 1, Day 14, 6 h post-dose, 240 mg, n=6): 3196.3 (1504.2, 6791.5) ng ml | Gmean plasma concentration of AZD1208 (± SD) (Cycle 1, Day 14, 6 h post-dose, 480 mg, n=6): 5420.2 (1806.5, 16 262.9) ng ml | Gmean plasma concentration of AZD1208 (± SD) (Cycle 1, Day 14, 6 h post-dose, 700 mg, n=7): 4452.1 (2126.6, 9320.8) ng ml | Gmean plasma concentration of AZD1208 (± SD) (Cycle 1, Day 14, 6 h post-dose, 900 mg, n=9): 2320.5 (896.7, 6004.8) ng ml | Gmean plasma concentration of AZD1208 (± SD) (Cycle 1, Day 14, 8 h post-dose, 120 mg, n=3): 1700.4 (974.4, 2967.5) ng ml | Gmean plasma concentration of AZD1208 (± SD) (Cycle 1, Day 14, 8 h post-dose, 240 mg, n=6): 2735.5 (1203.4, 6218.4) ng ml | Gmean plasma concentration of AZD1208 (± SD) (Cycle 1, Day 14, 8 h post-dose, 480 mg, n=6): 5248.1 (1804.2, 15 265.9) ng ml | Gmean plasma concentration of AZD1208 (± SD) (Cycle 1, Day 14, 8 h post-dose, 700 mg, n=7): 4064.8 (2043.6, 8085.1) ng ml | Gmean plasma concentration of AZD1208 (± SD) (Cycle 1, Day 14, 8 h post-dose, 900 mg, n=9): 2608.4 (2223.6, 3059.7) ng ml | Gmean plasma concentration of AZD1208 (± SD) (Cycle 1, Day 14, 24 h post-dose, 120 mg, n=3): 1248.3 (485.6, 3208.8) ng ml | Gmean plasma concentration of AZD1208 (± SD) (Cycle 1, Day 14, 24 h post-dose, 240 mg, n=6): 1818.9 (580.7, 5697.5) ng ml | Gmean plasma concentration of AZD1208 (± SD) (Cycle 1, Day 14, 24 h post-dose, 480 mg, n=6): 3154.5 (406.4, 24 485.6) ng ml | Gmean plasma concentration of AZD1208 (± SD) (Cycle 1, Day 14, 24 h post-dose, 700 mg, n=7): 2302.0 (643.6, 8233.0) ng ml | Gmean plasma concentration of AZD1208 (± SD) (Cycle 1, Day 14, 24 h post-dose, 900 mg, n=9): 593.0 (174.0, 2021.0) ng ml | Gmean plasma concentration of AZD1208 (± SD) (Cycle 1, Day 14, pre-dose, 120 mg, n=3): 1163.1 (335.5, 4032.0) ng ml | Gmean plasma concentration of AZD1208 (± SD) (Cycle 1, Day 14, pre-dose, 240 mg, n=6): 2106.9 (693.2, 6845.2) ng ml | Gmean plasma concentration of AZD1208 (± SD) (Cycle 1, Day 14, pre-dose, 480 mg, n=6): 2302.9 (541.6, 9792.3) ng ml | Gmean plasma concentration of AZD1208 (± SD) (Cycle 1, Day 14, pre-dose, 700 mg, n=7): 2513.6 (1057.2, 5976.4) ng ml | Gmean plasma concentration of AZD1208 (± SD) (Cycle 1, Day 14, pre-dose, 900 mg, n=9): 463.1 (444.2, 482.7) ng ml | Patients with marked accumulation (>3-fold) (across the doses, 7/16 patients): 44% | Median time to maximum plasma concentration (Tmax) (after a single dose): ~ 3 h | Differences in AZD1208 concentrations between individuals within the same cohort (after multiple doses): up to 10 fold | Dose proportionality of Cmax and AUC0–24 (following multiple doses): less than dose proportional | Accumulation ratio (individual patients at 480 mg): 3.6 and 0.36 | Administered dose eliminated unchanged in urine (within 24 h, all cohorts): < 1%
